Measurements: patent publication US5230998A, “Method for the prescreening of drugs targeted to the V3 hypervariable loop of the HIV-1 envelope glycoprotein gp 120” (priority 1991, dated 1993)

How the values were obtained:
[1] = molecular target: T1, HIV-1 IIIB glycoprotein gp120 V3 hypervariable loop (Human immunodeficiency virus type 1 BH10, UniProt P03375); assay: Inhibition of the reaction between HIV-1 IIIB gp120 and three distinct antibodies reacting with the V3 hypervariable loop (FIGS. 8-11); type: binding; details: 60 μg/ml, metal complexes versus uncomplexed
T1 construct: b180 also mentions the V3 loop peptide
Method: (§1) FIG. 8 is a bar graph depicting the inhibitory effect of chlorine6 (60 μg/ml) and metal chelates thereof on the reaction between HIV-1 IIIB glycoprotein gp120 and three distinct antibodies reacting with the V3 hypervariable loop of this glycoprotein. The antisera used were rabbit antiserum to a synthetic peptide corresponding to the V3 hypervariable loop of HIV-1 clone BH10, serum of a chimpanzee immunized with V3 hypervariable loop peptides of distinct HIV-1 isolates and monoclonal antibodies (McAb NEA 9305) raised against residues (315-329) of the V3 hypervariable loop of HIV-1 BH10 (Neurath et al (1990), Molec. Immunol., 27, 539-549).
FIG. 9 is a bar graph depicting the inhibitory effect of deuteroporphyrin IX,2-vinyl,4-hydroxymethyl (60 μg/ml) and metal chelates thereof on the reaction between HIV-1 IIIB glycoprotein gp120 and three distinct antibodies reacting with the V3 hypervarible loop of this glycoprotein. The antisera used were rabbit antiserum to a synthetic peptide corresponding to the V3 hypervariable loop of HIV-1 clone BH10, serum of a chimpanzee immunized with V3 hypervariable loop peptides of distinct HIV-1 isolates and monoclonal antibodies (McAb NEA 9305) raised against a synthetic peptide corresponding to residues (315-329) of the V3 hypervariable loop of HIV-1 BH10 (Neurath et al (1990), Molec. Immunol 27, 539-549).
as §1, with “FIG. 10” for “FIG. 8”, “of meso-tetra (4-carboxyphenyl)porphine” for “of chlorine6”, “against a synthetic peptide corresponding to” for “against”, “HIV-1 BH10.” for “HIV-1 BH10”
as §1, with “FIG. 11” for “FIG. 8”, “of uroporphyrin III” for “of chlorine6”, “against a synthetic peptide corresponding to” for “against”, “et al,” for “et al”, “Molec. lmmunol.,” for “Molec. Immunol.,”, “27, 539-549)” for “27, 539-549).”
Monoclonal antibodies (McAbs) recognizing the V3 hypervariable loop of HIV-1 BH 10 (McAb 9305 from DuPont, Wilmington, Del.) and an antiserum from a chimpanzee immunized with a mixture of V3 hypervariable loop peptides from 21 distinct HIV1 isolates (Girard, M., Kieny, M-P., Pinter, A., Barre-Sinoussi, F., Nara, P., Kolbe, H., Kusumi, K., Chaput, A., Reinhart, T., Muchmore, E, Ronco, J., Kaczorek, M., Gomard, E, Gluckman, JC., Fultz, P. N. (1991), "Immunization of Chimpanzees Confers Protection Against Challenge with Human Immunodeficiency Virus", Proc. Natl. Acad. Sci. USA, 88, 542-546) were also used for studies on the inhibitory affect of ATA on the reaction between these antibodies and gp120, using ELISA tests. These tests were carried out similarly as RIA, except that sodium merthiolate (1 mg/ml) was added to the buffers instead of NaN3, and goat antimouse IgG antibodies (Boehringer Mannheim Biochemicals, Indianapolis, Ind.) and goat anti-human IgG antibodies (Sigma, St. Louis, Mo.), respectively, each linked to horseradish peroxidase were used as second antibodies at final dilutions of 1:1,000 in phosphate-buffered saline (PBS) containing 10% goat serum and 0.1% Tween 20. […]

CD4 receptor = details: literature; cited from earlier work
[2] = system: HIV-1 reverse transcriptase; details: literature; cited from earlier work
[3] = system: gp120 expressed on the surface of HIV-1-infected cells; details: literature; cited from earlier work
[4] = molecular target: T2, HIV-1 gp120 V3 hypervariable loop (Human immunodeficiency virus type 1 group M subtype B, UniProt P03375); assay: biochemical; type: binding; details: excess of serum proteins in medium
T2 construct: Polystyrene plates coated with recombinant gp120 and gp160, respectively; purchased American Bio-Technologies, Inc., Cambridge, Mass; host or cells: baculovirus expression system
Method: Wells of 96 well polystyrene plates (Immulon 2, Dynatech Laboratories, Inc., Chantilly, Va.) were coated with synthetic peptides (200 μl; 20μg/ml in 0.1 M Tris-HCl, pH 8.8) overnight at 20° C. The peptides were from the sequence of HIV-1, clone BH 10 envelope glycoproteins gp120 and gp41 (Neurath, A. R., Strick, N., and Lee, E. Y. S. (1990), "B-cell Epitope Mapping of Human Immunodeficiency virus (HIV-1) Envelope Glycoprotein with Long (19 to 36-residue) Synthetic Peptides", J. Gen. Virol., 71., 85-95) and from V3 hypervariable loops of 21 distinct HIV-1 isolates (clones) Neurath, A. R., and Strick, N., (1990), "Confronting the Hypervariability of an Immunodominant Epitope Eliciting Virus Neutralizing Antibodies from the Envelope Glycoprotein of the Human Immunodeficiency Virus Type 1 (HIV-1)", Molec. Immunol., 27, 539-549. The latter peptides corresponded to full-length V3 loops generated by disulfide bonds between N- and C- terminal cysteine residues. After washing with 0.14 M NaCl, 0.01 M Tris, 0.02% NaN3 (TS), the wells were postcoated with a mixture of bovine serum albumin (BSA) and gelatine (10 and 2.5 mg/ml, respectively) in TS. BSA was omitted from the postcoating solution for RIA tests in which antibodies to ATA were used. Polystyrene plates coated with recombinant gp120 and gp160, respectively, (500 ng/well; from American Bio-Technologies, Inc., Cambridge, Mass. and MicroGeneSys, Inc., West Haven, Conn., respectively) were also used for RIA and ELISA tests.
To define sites on gp120/gp41 reacting with ATA, the inhibitory effect of this compound was studied by RIA tests using gp120- and gp160-coated wells, respectively, and antisera (final dilutions 1:150) against synthetic peptides from the entire sequence of gp120/gp41 of HIV-1 BH 10. The preparation and biological properties of these antisera were described elsewhere (Neurath et al., (1990), J. Gen. Virol., 71, 85-95). Each of the antisera was diluted in a mixture of fetal bovine serum and goat serum (9:1) containing 0.1% Tween 20, adjusted to pH 8. ATA (final concentration 50 μg/ml) was added in one set of assays, but was omitted from a parallel set. After incubation overnight at 25° C., the plates were washed with TS. Attached rabbit IgG was detected using ^125 I-labeled anti-rabbit IgG, as described before (Neurath et al., 1990, J. Gen. Virol., 71, 85-95). Similarly, the inhibitory effect of ATA on the reaction of peptides derived from gp120/gp41 and of peptides derived from V3 hypervariable loops from gp120 of distinct HIV-1 isolates with the respective homologous anti-peptide antisera was studied. In the latter case, antisera were diluted 1:1,000 for the assays.
The inhibitory effect of ATA and of other compounds on the reaction between antibodies with predetermined specificity and gp120 (or synthetic peptides derived from it) was determined from the formula: [formula] An analogous formula was used to calculate the percentage of inhibition from optical density readings resulting from ELISA tests.
Chemicals other than ATA were screened for inhibitory activity essentially as described above. […] Chemicals with inhibitory activity established by the respective immunoassays were screened further for antiviral activity.
Commercially available ATA is a mixture of monomers and polymers of distinct molecular masses (Gonzalez et al., (1979) Biochem. Biophys. Acta, 562, 534-545); Cushman et al., (1991), J. Chem., 34, 329-337). The monomers [molecular mass (M.W.)=422.4 daltons] were separated from the polymers. ATA (20 mg/ml in the form of free acid neutralized with 0.4 M NaOH) was dialyzed against H2 O in a dialysis membrane with a molecular mass cutoff of 500 daltons.

HIV-1 = details: literature; cited from earlier work

| Molecule | inhibitory activity on the interaction between the V3 hypervariable loop of HIV-1-IIIB and antisera [1] | inhibition of the reaction of gp120 on infected cells with monoclonal anti-gp120 antibodies [3] | also measured |
| --- | --- | --- | --- |
| O=C(O)c1ccc(-c2c3nc(c(-c4ccc(C(=O)O)cc4)c4ccc([n-]4)c(-c4ccc(C(=O)O)cc4)c4nc(c(-c5ccc(C(=O)O)cc5)c5ccc2[n-]5)C=C4)C=C3)cc1.[Co+2] | drastically reduced inhibitory activity | – | – |
| O=C(O)c1ccc(-c2c3nc(c(-c4ccc(C(=O)O)cc4)c4ccc([n-]4)c(-c4ccc(C(=O)O)cc4)c4nc(c(-c5ccc(C(=O)O)cc5)c5ccc2[n-]5)C=C4)C=C3)cc1.[Cr+2] | drastically reduced inhibitory activity | – | – |
| O=C(O)c1ccc(-c2c3nc(c(-c4ccc(C(=O)O)cc4)c4ccc([n-]4)c(-c4ccc(C(=O)O)cc4)c4nc(c(-c5ccc(C(=O)O)cc5)c5ccc2[n-]5)C=C4)C=C3)cc1.[Cu+2] | drastically reduced inhibitory activity | – | – |
| C=Cc1c(C)c2cc3nc(cc4[n-]c(cc5nc(cc1[n-]2)C(C)=C5CO)c(C)c4CCC(=O)O)C(CCC(=O)O)=C3C.[Fe+2] | substantially lower than that of the uncomplexed substance or of its Zn derivative | – | – |
| O=C(O)c1ccc(-c2c3nc(c(-c4ccc(C(=O)O)cc4)c4ccc([n-]4)c(-c4ccc(C(=O)O)cc4)c4nc(c(-c5ccc(C(=O)O)cc5)c5ccc2[n-]5)C=C4)C=C3)cc1.[Fe+2] | drastically reduced inhibitory activity | – | – |
| O=C(O)c1ccc(-c2c3nc(c(-c4ccc(C(=O)O)cc4)c4ccc([n-]4)c(-c4ccc(C(=O)O)cc4)c4nc(c(-c5ccc(C(=O)O)cc5)c5ccc2[n-]5)C=C4)C=C3)cc1.[Mn+2] | drastically reduced inhibitory activity | – | – |
| O=C(O)c1ccc(-c2c3nc(c(-c4ccc(C(=O)O)cc4)c4ccc([n-]4)c(-c4ccc(C(=O)O)cc4)c4nc(c(-c5ccc(C(=O)O)cc5)c5ccc2[n-]5)C=C4)C=C3)cc1.[Ni+2] | drastically reduced inhibitory activity | – | – |
| Cc1cc(-c2ccc(/N=N/c3ccc4c(S(=O)(=O)O)cc(S(=O)(=O)O)c(N)c4c3O)c(C)c2)ccc1/N=N/c1ccc2c(S(=O)(=O)O)cc(S(=O)(=O)O)c(N)c2c1O [substance #28, Evans Blue] | – | inhibit the reaction of gp120 expressed on the surface of HIV-1-infected cells with monoclonal anti-gp120 antibodies | inhibition of the interaction with CD4 receptor (CD4 receptor): inhibited the interaction of the CD4 receptor for HIV-1; inhibition of HIV-1 reverse transcriptase [2]: inhibited the reverse transcriptase of HIV-1; reaction with the V3 hypervariable loop as determined by RIA (ELISA) tests [4]: did not react with the V3 hypervariable loop |
| CC1=C/C(=C(\c2ccc(N)c(S(=O)(=O)[O-])c2)c2ccc(N)c(S(=O)(=O)O)c2)C=C(S(=O)(=O)[O-])C1=N.[Na+].[Na+] [substance #145, acid fuchsin] | – | – | inhibition of HIV-1 reverse transcriptase [2]: inhibited the reverse transcriptase of HIV-1; reaction with the V3 hypervariable loop as determined by RIA (ELISA) tests [4]: did not react with the V3 hypervariable loop |
| Cc1ccc(C(=O)Nc2ccc(S(=O)(=O)O)c3cc(S(=O)(=O)O)cc(S(=O)(=O)O)c23)cc1NC(=O)c1cccc(NC(=O)Nc2cccc(C(=O)Nc3cc(C(=O)Nc4ccc(S(=O)(=O)O)c5cc(S(=O)(=O)O)cc(S(=O)(=O)O)c45)ccc3C)c2)c1 [suramin, reference compound] | – | inhibit the reaction of gp120 expressed on the surface of HIV-1-infected cells with monoclonal anti-gp120 antibodies | inhibition of HIV-1 reverse transcriptase [2]: inhibited the reverse transcriptase of HIV-1 |
| hemin [substance #13] | – | – | inhibition of HIV-1 replication / antiviral activity (HIV-1): anti-HIV-1 activity |
| heparin | – | inhibit the reaction of gp120 expressed on the surface of HIV-1-infected cells with monoclonal anti-gp120 antibodies | – |
| pentosan polysulfate | – | inhibit the reaction of gp120 expressed on the surface of HIV-1-infected cells with monoclonal anti-gp120 antibodies | – |
